# Measured values reported in patent US4997926A, “Deaminase-stable anti-retroviral 2-halo-2',3'-dideoxy” (Scripps Clinic and Research Foundation, priority 1987, dated 1991).
# Like-named read-outs stand apart in the source and are kept apart here.
# What was measured:
# [1] = target: T1, calf intestinal adenosine deaminase (Bos taurus, UniProt P56658); assay: Metabolism by adenosine deaminase (spectrophotometric deamination, Lineweaver-Burke); type: biochemical
# T1 sequence (P56658 1-363): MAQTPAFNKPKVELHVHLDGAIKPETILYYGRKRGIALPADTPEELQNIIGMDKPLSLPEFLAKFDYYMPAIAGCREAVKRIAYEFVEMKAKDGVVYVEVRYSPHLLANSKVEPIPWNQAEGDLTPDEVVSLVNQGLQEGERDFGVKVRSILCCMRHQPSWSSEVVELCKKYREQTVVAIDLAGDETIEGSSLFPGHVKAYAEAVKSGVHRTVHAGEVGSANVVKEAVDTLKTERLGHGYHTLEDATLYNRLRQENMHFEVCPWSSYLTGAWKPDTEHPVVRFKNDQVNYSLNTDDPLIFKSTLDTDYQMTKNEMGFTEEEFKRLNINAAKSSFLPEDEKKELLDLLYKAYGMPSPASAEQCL
# Experimental: ^1 The indicated nucleosides at concentrations from 5-200 uM were
# incubated at 18-20° C. with 0.01 EU/ml calf intestinal adenosine
# deaminase in 10 mM sodium phosphate, pH 7.5. Deamination was monitored
# spectrophotometrically at 265 nanometers (nm) and 250 nm, as described
# The individual nucleosides, at concentrations from 5-200 uM in 10 mM sodium phosphate, pH 7.5, were incubated at 18-20 degrees C. with 0.01 EU/ml calf intestinal adenosine deaminase. The change in the optical density at 265 nm and 250 nm was monitored spectrophotometrically.
# [2] = tested on: deoxycytidine kinase deficient CEM T cells (clone AraC-8D); type: in vitro ADME, human
# Experimental: (§1) ^1 Human CEM T cells, or variants deficient in either deoxycytidine
# (§2) kinase, or deoxycytidine kinase plus adenosine kinase, were incubated at
# (§3) density of 5 × 10^7 cells/ml in medium containing 3 uM [8^3
# (§4) H2-chloro-2',3dideoxyadenosine. After 4 hours, the nucleotides in the
# (§5) methanolsoluble extracts were determined after separation by HPLC, as
# (§6) described in the Materials and Methods.
# (§7) The human T lymphoblastoid cell line, CCRF-CEM, and mutants deficient in either deoxycytidine kinase (clone AraC-8D), or deoxycytidine kinase plus adenosine kinase (clone AraC-8DM10-5) were obtained and propagated as described previously [Foley et al., (1965) Cancer, 18:552-529 and Hershfield et al., (1982) J. Biol. Chem., 257:6380-6386]. For metabolic studies, the cells were cultured in RPMI 1640 medium supplemented with 2 mM L-glutamine and 10 percent fetal bovine serum at a density of 2×10^7 cells/ml in the presence of radiolabelled dideoxynucleosides, as indicated earlier. Some cultures were pre-incubatedfor 30 minutes either with 5 uM 2'-deoxycoformycin or 50 uM coformycin. After 4 hours of incubation the cells were harvested by centrifugation.
# (§8) The cell pellets were washed with Hank's balanced salt solution at 4 degrees C., and extracted with 1 ml 60 percent methanol/water at -20 degrees C. for 10 minutes. Initial studies included 2',3'-dideoxyadenosine5'-triphosphate as an internal recovery marker. The nucleotides were fractionated by high performance liquid chromatography on an Whatman Partisil-10 SAX column, applying a gradient of zero to 100 percent buffer B in buffer A. Buffer A was 7 mM potassium phosphate pH 3.4. Buffer B was 0.5 M potassium phosphate, pH 3.4, one M KCl. The flow rate was 1.5 ml/minute, 1 minute fractions were collected. Buffer A was used alone for the first ten fractions after which elution with Buffer B began and was continued through fraction thirty, after which the eluting buffer was completely Buffer B. The nucleoside was eluted by about fraction six. The monophosphate eluted between about fractions fifteen and eighteen, the diphosphate between about fractions twenty-seven and thirty-two, and the triphosphate eluted between about fractions fifty-one and about sixty-five.
# [3] = tested on: wild type CEM T cells; type: in vitro ADME, human
# Experimental: Extracts of wild type CEM cells that had been incubated with 3 uM [8-^3 H]-2-chloro-2',3'-dideoxyadenosine for 4 hours were fractionated by ion exchange high performance liquid chromatography (HPLC). Detected radioactive peaks corresponded to the free deoxynucleoside and to the 5'-mono-, di- and tri-phosphates, respectively. The total intracellular 2-chloro-2',3'-dideoxynucleotide content was 30 pmols/10^8 cells. The identity of the peaks was confirmed by enzymatic dephosphorylation, and reverse phase HPLC in the presence of authentic 2-chloro-2',3'-dideoxyadenosine.
# as §1, §2, §3, §4, §5, §6, §7, §8
# [4] = Deoxycytidine kinase deficient CEM, 3 uM, 4 hours
Structure (SMILES),Relative Efficiency (ratio of Vmax/Km) ([1]; relative efficiency of deamination),"2',3'-dideoxyadenosine uptake [2]","2',3'-dideoxyadenosine uptake [3]",Relative Efficiency (ratio of Vmax/Km) [1],"Nucleotide Formed, Diphosphate [2, 4] [pmols/10^8 cells/4 hrs]","Nucleotide Formed, Monophosphate [2, 4] [pmols/10^8 cells/4 hrs]","Nucleotide Formed, Triphosphate [2, 4] [pmols/10^8 cells/4 hrs]","accumulated phosphates relative to wild type CEM cells ([2]; deoxycytidine kinase deficient CEM variant, same culture conditions)","intracellular dideoxynucleotide content after 4 hours ([3]; CEM 2 × 10^7 cells/ml, 37 degrees C., 3 uM 2-Cl-ddA or 2 uM ddA) [pmols/10^8 cells]","Nucleotide Formed, Diphosphate ([3]; Wild Type CEM, 3 uM, 4 hours) [pmols/10^8 cells/4 hrs]","Nucleotide Formed, Triphosphate ([3]; Wild Type CEM, 3 uM, 4 hours) [pmols/10^8 cells/4 hrs]","total intracellular 2-chloro-2',3'-dideoxynucleotide content ([3]; Wild Type CEM, 3 uM, 4 hours) [pmols/10^8 cells]","Nucleotide Formed, Monophosphate ([3]; Wild Type CEM, 3 uM, 4 hours, 5 × 10^7 cells/ml) [pmols/10^8 cells/4 hrs]"
"Nc1ncnc2c1ncn2[C@H]1CC[C@@H](CO)O1 [2',3'-dideoxyadenosine, reference compound]",3.52,20-30 pmols/10^8 cells,20-30 pmols/10^8 cells,,,,,,,,,,
"Nc1nc(Cl)nc2c1ncn2[C@H]1CC[C@@H](CO)O1 [2-chloro-2',3'-dideoxyadenosine]",,,,0.04,0.8,1.7,3.4,about 20%,~30,2.8,24.3,30,3.0
